Source: US7393526B2, “Systemic gene delivery vehicles for the treatment of tumors” (Children's Medical Center Corporation, priority 2000, dated 2008)

Tests used:
CNS-1 glioma cells = assay: Co-culture of CD-NSCs with glioma cells plus 5-FC: tumor cell count per high-power field; assay type: cell-based; conditions: tumor cell-only plates, no CD-NSCs, 5-FC 500 μg/ml
Description: FIGS. 2A-2C summarize the significant antitumor effect of CD-expressing NSCs in vitro. CNS-1 glioblastoma cells were co-cultured with murine CD-NSCs (FIGS. 2A and 2B) or human CD-NSCs. Representative low power fields are shown after fixation and X-gal staining (CD-NSCs dark blue, tumor cells pale) three days after plating with or without 5-FC. […] In this treatment regime, the NSCs were still dividing and thus also subject to elimination by 5-FU and its toxic metabolites. […] Note also, that the tumor-killing effect was virtually identical whether 50,000 or 100,000 CD-NSCs were initially plated with 200,000 tumor cells.
This experiment was performed to determine if modified CD-NSCs could effectively deliver therapy to tumor cells and produce a profound antitumor response. 200,000 CNS-1 glioma cells were plated into 10 cm Petri dishes. The following day (Day 1) media were replaced, and 50,000 or 100,000 CD-NSCs were added. On Day 2, media were replaced and 5-FC added (500 μg/ml). Control dishes included tumor-NSC co-cultures with no 5-FC treatment and tumor cell-only dishes with 5-FC treatment. Three days later, all plates were rinsed well with 1× PBS and fixed with 4% paraformaldehyde for 10 min at room temperature. […] Under high power, the numbers of tumor cells per field were counted. […]

CNS-1 glioblastoma = assay: Intracranial CNS-1 tumor co-transplanted with CD-NSCs, i.p. 5-FC: tumor mass; assay type: in vivo, adult nude mice; conditions: tumor alone, 5-FC 900 mg/kg i.p. for 10 days
Description: CNS-1 glioblastoma cells alone, or CNS-1 cells co-transplanted with human CS-NSCs were implanted into the frontal lobe of adult nude mice. Two days later, treated animals began to receive daily intraperitoneal injections of 5-FC which continued for ten days. […] Note that there was about an 80% reduction in tumor mass in 5-FC-treated animals transplanted with tumor and CD-NSCs (FIG. 3D). […] FIGS. 3B, 3C and 3D are “camera lucida” sections of tumor areas on representative cryostat tissue sections, stained with X-gal and counterstained with neutral red.
On Day 0, adult nude mice received stereotactically guided injections into the right frontal lobe of CNS-1 glioblastoma alone (7×10^4 in 2 μl PBS), or CNS-1 cells mixed with CD-NSCs (7×10^4 CNS-1 and 3.5×10^4 NSCs in 2 μl PBS). Two days later treated animals received 10 intraperitoneal injections 900 mg/kg of 5-FC over a period of 10 days. Control animals received no 5-FC. Animals were sacrificed on day 13.

Question: `Nc1nc(=O)[nH]cc1F` [5-FC, 5-fluorocytosine] was tested. Which “killing of tumor cells, tumor alone” value (CNS-1 glioma cells) did it give?
Answer: The value was “not significantly killed”.

Question: What about the “effect on tumor mass in the absence of CD-NSCs” value (CNS-1 glioblastoma) of the same compound?
Answer: The value was “no effect on tumor mass”.
